Where “and” joins values, the source holds several entries; their conditions need not be identical. Equal entries are not always repeated. Blank lines part the entries; values can stand above or below the molecule they belong to.
Key:
recombinant human PFK-L = target: T1, recombinant human PFK-L (Homo sapiens, UniProt P17858); test: ALDO-TIM-G3PDH enzyme-linked kinetic assay, PFK-L; assay type: biochemical; details: PFK-L
T1 construct: made in house; host or cells: PFK-deficient Saccharomyces cerevisiae
T1 sequence (P17858 1-780): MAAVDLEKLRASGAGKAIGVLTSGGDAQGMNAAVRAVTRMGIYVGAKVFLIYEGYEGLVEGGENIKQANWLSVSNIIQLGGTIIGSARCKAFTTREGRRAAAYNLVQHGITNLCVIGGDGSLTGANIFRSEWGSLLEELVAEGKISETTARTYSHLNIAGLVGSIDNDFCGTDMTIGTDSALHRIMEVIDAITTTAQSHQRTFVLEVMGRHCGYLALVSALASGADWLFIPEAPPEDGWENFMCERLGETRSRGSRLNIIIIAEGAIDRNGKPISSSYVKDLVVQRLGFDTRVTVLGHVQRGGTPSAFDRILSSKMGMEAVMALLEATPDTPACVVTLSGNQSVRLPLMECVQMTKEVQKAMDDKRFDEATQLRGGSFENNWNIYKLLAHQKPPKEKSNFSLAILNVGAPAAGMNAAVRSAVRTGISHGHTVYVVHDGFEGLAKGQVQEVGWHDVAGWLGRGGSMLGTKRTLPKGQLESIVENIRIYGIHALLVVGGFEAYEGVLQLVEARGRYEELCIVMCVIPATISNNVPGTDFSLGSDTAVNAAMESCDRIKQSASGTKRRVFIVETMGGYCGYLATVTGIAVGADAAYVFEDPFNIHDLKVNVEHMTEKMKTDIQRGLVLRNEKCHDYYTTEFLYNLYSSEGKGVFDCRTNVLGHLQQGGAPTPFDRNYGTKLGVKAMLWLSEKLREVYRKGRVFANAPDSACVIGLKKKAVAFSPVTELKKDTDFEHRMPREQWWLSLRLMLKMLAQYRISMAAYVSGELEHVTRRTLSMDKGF
Procedure: (§1) Recombinant human PFKs were expressed in PFK-deficient Saccharomyces cerevisiae and purified using the methods described previously, adapting earlier materials and protocols. Production of PFK intended for use in ATP titration experiments used 1 mM F6P as a tetramer stabilising agent in protein purification and storage buffers. Production of PFK intended for use in F6P titration experiments used 1 mM ATP as a tetramer stabilising agent in protein purification and storage buffers. Experimental details on the purification and characterisation procedures including figures showing SDS–PAGE gels of the highly pure PFKs used in the kinetic experiments described in this work have been recently published.
(§2) Assay buffer consisted of 50 mM TEA, 100 mM KCl, 10 mM MgCl2, 1 mM Tris(2-carboxyethyl)phosphine hydrochloride (TCEP), 10% glycerol, pH 7.4. Assay mix consisted of 5 units/ml glycerol-3-phosphate dehydrogenase (G3PDH, Sigma–Aldrich G6880), 2.5 units/ml aldolase (Sigma–Aldrich A2714), 25 units/ml triosephosphate isomerase (TIM, Sigma–Aldrich T6258), and 1.25 mM NADH. ATP and F6P were obtained from Sigma–Aldrich (A2383 and F3627, respectively). For ATP titrations, 38 µl of buffer or ligand were added to a clear non-binding 96-well plate. 40 µl of assay mix containing 10 mM F6P (final concentration 4 mM) was added and the plate was incubated at 25°C for 5 min. An amount of 2 µl of PFK isoforms were added to each well from stock concentrations of 150 µg/ml and the reaction was immediately started with 20 µl of ATP at varying concentrations. For F6P titrations, 30 µl of buffer or ligand was added to a clear non-binding 96-well plate. An amount of 40 µl of assay mix containing 1.25 mM ATP (final concentration 0.5 mM) was added and the plate was incubated at 25°C for 5 min. An amount of 5 µl of PFK isoforms were added to each well from stock concentrations of 200 µg/ml and the reaction was immediately started with 20 µl F6P at varying concentrations. All ligands and substrates (including ATP) were used at pH 7.4. All metabolites were obtained from Sigma–Aldrich unless otherwise stated. […] A SpectraMax M5 Multi-Mode Microplate Reader was used to measure A340nm at 13 s intervals for 10 min. All experiments were performed in triplicate unless otherwise stated.
(§3) Time-dependent absorbance change was converted into rate of NADH oxidation (µM s^−1) or specific activity (µmol min^−1 mg protein^−1) using the Beer-Lambert law (molar extinction coefficient of NADH 6.22 mM^−1 cm^−1). The initial rate of reaction was used to avoid accumulation of ADP, which activates PFK, interfering with the determination of kinetic properties. Non-linear regression analysis was performed on substrate titration data using GraphPad Prism 7, with curves fitted using allosteric sigmoidal models, enabling determination of steady-state kinetic values.

recombinant human PFK-P = target: T2, recombinant human PFK-P (Homo sapiens, UniProt Q01813); test: ALDO-TIM-G3PDH enzyme-linked kinetic assay, PFK-P; assay type: biochemical
T2 construct: made in house; host or cells: PFK-deficient Saccharomyces cerevisiae
T2 sequence (Q01813 1-784): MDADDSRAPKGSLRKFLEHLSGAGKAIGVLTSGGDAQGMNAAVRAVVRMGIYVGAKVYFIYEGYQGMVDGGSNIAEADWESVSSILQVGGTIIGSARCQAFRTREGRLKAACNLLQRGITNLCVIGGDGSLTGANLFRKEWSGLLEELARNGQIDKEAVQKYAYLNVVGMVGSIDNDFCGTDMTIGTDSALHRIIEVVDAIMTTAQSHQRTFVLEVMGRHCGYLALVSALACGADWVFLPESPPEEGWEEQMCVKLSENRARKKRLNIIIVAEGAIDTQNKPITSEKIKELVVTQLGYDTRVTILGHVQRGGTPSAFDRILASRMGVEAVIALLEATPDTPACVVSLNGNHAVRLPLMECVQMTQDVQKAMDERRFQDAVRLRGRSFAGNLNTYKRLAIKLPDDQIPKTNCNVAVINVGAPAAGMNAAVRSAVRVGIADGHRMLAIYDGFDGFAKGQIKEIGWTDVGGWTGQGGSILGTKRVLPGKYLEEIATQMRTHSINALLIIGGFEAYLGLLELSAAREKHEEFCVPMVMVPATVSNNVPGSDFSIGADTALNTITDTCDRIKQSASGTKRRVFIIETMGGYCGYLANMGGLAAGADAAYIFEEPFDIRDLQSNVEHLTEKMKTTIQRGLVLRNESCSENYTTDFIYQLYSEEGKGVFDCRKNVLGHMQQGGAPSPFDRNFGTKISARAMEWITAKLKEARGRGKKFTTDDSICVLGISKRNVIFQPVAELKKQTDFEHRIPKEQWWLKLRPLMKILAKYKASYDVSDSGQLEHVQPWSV
Procedure: as §1, §2, §3

[1] = 1 mM ATP compared with 0.5 mM ATP
[2] = ATP titration, F6P 4 mM, n = 6, mean (SD)
[3] = Hill value, ATP titration, F6P 4 mM, n = 6, mean (SD)
[4] = control without modulator, run alongside modulator experiments, F6P 4mM, N=3, mean (SD)
[5] = GTP titration, F6P 4 mM, n = 3, mean (SD)
[6] = Hill value, GTP titration, F6P 4 mM, n = 3, mean (SD)
[7] = modulator 1100 µM, ATP 0.5mM, N=3, mean (SD)
[8] = modulator 1100 µM, F6P 4mM, N=3, mean (SD)

decrease in specificity constant (ATP inhibition) (recombinant human PFK-L; [1]): 31%
K0.5^ATP (recombinant human PFK-L; [2]): 160 µM and 160.1 (13.5) µM
Vmax^ATP (recombinant human PFK-L; [2]): 39.3 (1.2) µmoles/min.mg
kcat^ATP (recombinant human PFK-L; [2]): 57.3 (1.7) s^−1
h (ATP) (recombinant human PFK-L; [3]): 1.12 (0.08)
K0.5ATP (recombinant human PFK-L; [4]): 151.2 (16.9) M and 169.0 (21.5) M
decrease in specificity constant (ATP inhibition) (recombinant human PFK-P; [1]): 50%
K0.5^ATP (recombinant human PFK-P; [2]): 275 µM and 276 µM and 275.6 (84.4) µM
Vmax^ATP (recombinant human PFK-P; [2]): 27.2 (2.5) µmoles/min.mg
kcat^ATP (recombinant human PFK-P; [2]): 39.7 (1.7) s^−1
h (ATP) (recombinant human PFK-P; [3]): 0.76 (0.09)
K0.5ATP (recombinant human PFK-P; [4]): 326.9 (99.7) M and 217.9 (74.5) M
SMILES: Nc1ncnc2c1ncn2[C@@H]1O[C@H](COP(=O)(O)OP(=O)(O)OP(=O)(O)O)[C@@H](O)[C@H]1O [ATP]
kcat^ATP/K0.5^ATP (recombinant human PFK-L; [2]): 0.36 s^−1 µM^−1 and 0.36 (0.13) s^−1 µM^−1
VmaxATP (recombinant human PFK-L; [4]): 39.26 (1.51) moles/min/mg and 39.36 (1.80) moles/min/mg
kcat^ATP/K0.5^ATP (recombinant human PFK-P; [2]): 0.14 s^−1 µM^−1 and 0.14 (0.02) s^−1 µM^−1
VmaxATP (recombinant human PFK-P; [4]): 30.74 (2.92) moles/min/mg and 23.65 (2.40) moles/min/mg

K0.5^GTP (recombinant human PFK-L; [5]): 158 µM and 157.8 (10.8) µM
Vmax^GTP (recombinant human PFK-L; [5]): 25.39 (0.56) µmoles/min.mg
kcat^GTP (recombinant human PFK-L; [5]): 37.0 (0.8) s^−1
h (GTP) (recombinant human PFK-L; [6]): 1.18 (0.08)
K0.5^GTP (recombinant human PFK-P; [5]): 131 µM and 131 (20.9) µM
Vmax^GTP (recombinant human PFK-P; [5]): 12.30 (0.62) µmoles/min.mg
kcat^GTP (recombinant human PFK-P; [5]): 17.9 (0.9) s^−1
h (GTP) (recombinant human PFK-P; [6]): 1.12 (0.18)
SMILES: Nc1nc2c(ncn2[C@@H]2O[C@H](COP(=O)(O)OP(=O)(O)OP(=O)(O)O)[C@@H](O)[C@H]2O)c(=O)[nH]1 [GTP]
kcat^GTP/K0.5^GTP (recombinant human PFK-L; [5]): 0.23 s^−1 µM^−1 and 0.23 (0.07) s^−1 µM^−1
kcat^GTP/K0.5^GTP (recombinant human PFK-P; [5]): 0.14 s^−1 µM^−1 and 0.14 (0.04) s^−1 µM^−1

change in kcat^ATP/K0.5^ATP compared with control PFK without modulator (recombinant human PFK-L; modulator 1100 µM): +1%
change in kcat^F6P/K0.5^F6P compared with control PFK without modulator (recombinant human PFK-L; modulator 1100 µM): +92%
K0.5F6P + modulator (recombinant human PFK-L; [7]): 952.8 (137.7) M
VmaxF6P + modulator (recombinant human PFK-L; [7]): 5.36 (0.49) moles/min/mg
K0.5ATP + modulator (recombinant human PFK-L; [8]): 148.7 (18.6) M
VmaxATP + modulator (recombinant human PFK-L; [8]): 34.91 (1.59) moles/min/mg
change in kcat^ATP/K0.5^ATP compared with control PFK without modulator (recombinant human PFK-P; modulator 1100 µM): −40%
change in kcat^F6P/K0.5^F6P compared with control PFK without modulator (recombinant human PFK-P; modulator 1100 µM): +9%
K0.5F6P + modulator (recombinant human PFK-P; [7]): 1378 (96) M
VmaxF6P + modulator (recombinant human PFK-P; [7]): 0.81 (0.04) moles/min/mg
K0.5ATP + modulator (recombinant human PFK-P; [8]): 352.3 (133.2) M
VmaxATP + modulator (recombinant human PFK-P; [8]): 23.07 (2.40) moles/min/mg
SMILES: C=C(OP(=O)(O)O)C(=O)O [PEP, phosphoenolpyruvate]
